Where “and” joins values, the source holds several entries; their conditions need not be identical. Identical values can stand only once. Like-named read-outs stand apart in the source and are kept apart here.
What was measured:
[1] = biological target: T1, rat GPR14 (U-II receptor) (Rattus norvegicus, UniProt P49684); assay: Rat UII Calcium Mobilization FLIPR Assay; type: cell-based; conditions: for inhibition at 10 µM / inhibition at 50 µM: CHO, 5 min, agonist-induced Ca2+ mobilization (FLIPR), CHO cells with rat UII receptor; for inhibition at 10 µM: 10 μM compound, read-out: % I @ 10; for inhibition at 50 µM: 50 μM compound, read-out: % I @ 50
T1 construct: expressed in transfected cells
T1 sequence (P49684 1-386): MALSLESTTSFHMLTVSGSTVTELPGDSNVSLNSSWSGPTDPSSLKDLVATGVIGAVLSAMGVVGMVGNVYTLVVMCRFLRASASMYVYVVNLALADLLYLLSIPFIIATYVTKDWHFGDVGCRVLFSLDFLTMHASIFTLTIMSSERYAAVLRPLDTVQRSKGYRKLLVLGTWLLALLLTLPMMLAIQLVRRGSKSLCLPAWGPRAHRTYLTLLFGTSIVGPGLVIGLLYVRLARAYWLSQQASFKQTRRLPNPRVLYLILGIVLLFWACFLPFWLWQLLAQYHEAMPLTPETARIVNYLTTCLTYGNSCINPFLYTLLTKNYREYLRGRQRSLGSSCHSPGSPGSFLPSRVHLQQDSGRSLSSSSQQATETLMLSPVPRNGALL
Text: To derive these cells, the complete coding sequence of rat U-II (Genbank Accession No. U32673) was amplified by nested PCR from rat heart marathon-Ready cDNA. […] The PCR products were cloned into pcDNA3 (Invitrogen) digested with EcoR I and Xba I. Clones containing rat U-II receptor were verified by complete sequencing of the U-II receptor insert to ensure a lack of PCR-introduced errors. The constructed vector was transfected into CHO cells by using lipofectamine (GIBCO BRL). CHO cells with high expression of rat U-II receptor were selected and established as stable cell lines by using G418. CHO cells were seeded at 25,000 cells per well into 96-well, black-wall, clear-bottom microtiter plates 24 h before assay. Cells in culture media (DMEM/F12 containing 15 mM HEPES, L-glutamine, pyridoxine hydrochloride; 10% fetal bovine serum; 1 mg/mL G418 sulfate; antibiotic-antimycotic; pH 7.4) were loaded with proprietary dye, from the FLIPR Calcium Assay Kit (Molecular Devices), prepared in assay buffer (Hanks Balanced Salts Solution, 20 mM HEPES, 0.1% BSA, 2.5 mM probenecid, pH 7.4), and incubated for 1 h at 37° C. Calcium mobilization determinations were performed at room temperature (23° C.).

[2] = biological target: T2, endogenous human UII receptor (Homo sapiens, UniProt Q9UKP6); assay: Human Radioligand Binding Assay ((^125I)-U-II binding to human skeletal muscle myoblasts)
T2 sequence (Q9UKP6 1-389): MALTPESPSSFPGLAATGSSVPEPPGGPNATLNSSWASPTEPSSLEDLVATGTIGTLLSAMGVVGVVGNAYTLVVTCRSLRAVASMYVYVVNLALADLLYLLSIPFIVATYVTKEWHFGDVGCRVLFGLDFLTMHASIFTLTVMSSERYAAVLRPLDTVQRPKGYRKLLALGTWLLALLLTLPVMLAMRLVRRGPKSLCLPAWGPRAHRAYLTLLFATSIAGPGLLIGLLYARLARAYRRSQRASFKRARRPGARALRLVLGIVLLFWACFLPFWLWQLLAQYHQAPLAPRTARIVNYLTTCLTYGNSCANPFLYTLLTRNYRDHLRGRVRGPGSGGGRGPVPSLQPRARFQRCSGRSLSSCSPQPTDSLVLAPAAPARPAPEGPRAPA

[3] = Inhibition of Acetyl-cyclic[Cys-Phe-Trp-Lys-(2-Nal)-Cys]-NH2 induced Ca2+ mobilization (FLIPR) in CHO cells transfected with rat UII receptor, read-out: IC50
[4] = Inhibition of human UII binding to human skeletal muscle myoblasts containing endogenous human UII receptor
[5] = average value for the compound tested, read-out: Rat UII FLIPR Average IC50

SMILES | inhibition at 10 µM [1] [%] | inhibition at 50 µM [1] [%] | IC50 [1, 3] | Ki [2, 4] [µM] | Ki [2] [µM] | IC50 [1, 5] [µM]
COc1ccc(CN2C(=O)c3cccc(N4CC5CCC(C4)N5Cc4ccccc4)c3C2=O)cc1OC [Cpd 7, 4-(8-benzyl-3,8-diaza-bicyclo[3.2.1]oct-3-yl)-2-(3,4-dimethoxy-benzyl)-isoindole-1,3-dione] | 89 | – | 0.22 µM and 0.18 µM | – | 0.2 | –
COc1ccc(CN2C(=O)c3c(Cl)ccc(N4CC5CCC(C4)N5Cc4ccccc4)c3C2=O)cc1OC [Cpd 9, 4-(8-benzyl-3,8-diaza-bicyclo[3.2.1]oct-3-yl)-7-chloro-2-(3,4-dimethoxy-benzyl)-isoindole-1,3-dione] | 91 | 81 | 0.19 µM | – | 0.66 | –
COc1ccc(CN2C(=O)c3cccc(N4CCN(Cc5ccc(F)cc5)CC4)c3C2=O)cc1OC [Cpd 12, 2-(3,4-dimethoxy-benzyl)-4-[4-(4-fluoro-benzyl)-piperazin-1-yl]-isoindole-1,3-dione] | – | – | 2.8 µM and 0.37 µM | – | 4.5 | –
COc1ccc(C(CCCNS(=O)(=O)c2ccc(Br)s2)N2C(=O)c3cccc(N4CCN([C@H](C)c5ccccc5)CC4)c3C2=O)cc1OC (stereo partly drawn) [Cpd 100, 5-bromo-thiophene-2-sulfonic acid (4-(3,4-dimethoxy-phenyl)-4-{1,3-dioxo-4-[4-(1R)-(1-phenyl-ethyl)-piperazin-1-yl]-1,3-dihydro-isoindol-2-yl}-butyl)-amide] | – | – | – | – | – | 0.57
COc1ccc(C(CCCNS(=O)(=O)C=Cc2ccccc2)N2C(=O)c3cccc(N4CCN([C@H](C)c5ccccc5)CC4)c3C2=O)cc1OC (stereo partly drawn) [Cpd 111, 2-phenyl-ethenesulfonic acid (4-(3,4-dimethoxy-phenyl)-4-{1,3-dioxo-4-[4-(1R)-(1-phenyl-ethyl)-piperazin-1-yl]-1,3-dihydro-isoindol-2-yl}-butyl)-amide] | – | – | – | – | – | 0.15
COc1ccc(C(CCCNS(=O)(=O)c2cc(Cl)sc2Cl)N2C(=O)c3cccc(N4CCN([C@H](C)c5ccccc5)CC4)c3C2=O)cc1OC (stereo partly drawn) [Cpd 113, 2,5-dichloro-thiophene-3-sulfonic acid (4-(3,4-dimethoxy-phenyl)-4-{1,3-dioxo-4-[4-(1R)-(1-phenyl-ethyl)-piperazin-1-yl]-1,3-dihydro-isoindol-2-yl}-butyl)-amide] | – | – | – | – | – | 2.6
COc1ccc(C(CCCNS(=O)(=O)c2csc3ccccc23)N2C(=O)c3cccc(N4CCN([C@H](C)c5ccccc5)CC4)c3C2=O)cc1OC (stereo partly drawn) [Cpd 116, benzo[b]thiophene-3-sulfonic acid (4-(3,4-dimethoxy-phenyl)-4-{1,3-dioxo-4-[4-(1R)-(1-phenyl-ethyl)-piperazin-1-yl]-1,3-dihydro-isoindol-2-yl}-butyl)-amide] | – | – | – | – | – | 1.4
COc1ccc(C(CCCNC(=O)Nc2cccs2)N2C(=O)c3cccc(N4CCN([C@H](C)c5ccccc5)CC4)c3C2=O)cc1OC (stereo partly drawn) [Cpd 120, 1-(4-(3,4-dimethoxy-phenyl)-4-{1,3-dioxo-4-[4-(1R)-(1-phenyl-ethyl)-piperazin-1-yl]-1,3-dihydro-isoindol-2-yl}-butyl)-3-thiophen-2-yl-urea] | – | – | – | – | – | 0.31
COc1ccc(C(CCNC(=O)Nc2cccs2)N2C(=O)c3cccc(N4CCN([C@H](C)c5ccccc5)CC4)c3C2=O)cc1OC (stereo partly drawn) [Cpd 121, 1-(3-(3,4-dimethoxy-phenyl)-3-{1,3-dioxo-4-[4-(1R)-(1-phenyl-ethyl)-piperazin-1-yl]-1,3-dihydro-isoindol-2-yl}-propyl)-3-thiophen-2-yl-urea] | – | – | – | – | – | 0.27
COc1ccc([C@@H](CCCNS(=O)(=O)c2sc3ccc(F)cc3c2C)N2C(=O)c3cccc(N4CCN([C@H](C)c5ccccc5)CC4)c3C2=O)cc1OC [Cpd 137, (R)-5-fluoro-3-methyl-benzo[b]thiophene-2-sulfonic acid (4-(3,4-dimethoxy-phenyl)-4-{1,3-dioxo-4-[4-(1R)-(1-phenyl-ethyl)-piperazin-1-yl]-1,3-dihydro-isoindol-2-yl}-butyl)-amide] | – | – | – | – | – | 2.2
COc1ccc([C@@H](CCCNS(N)(=O)=O)N2C(=O)c3cccc(N4CCN([C@H](C)c5ccccc5)CC4)c3C2=O)cc1OC [Cpd 141, (R)-N′-[(4-(3,4-dimethoxy-phenyl)-4-{1,3-dioxo-4-[4-(1R)-(1-phenyl-ethyl)-piperazin-1-yl]-1,3-dihydro-isoindol-2-yl}-butyl)]-sulfamide] | – | – | – | – | 0.017 | –

Second part, the compound after the results:

inhibition at 10 µM [1] [%] | inhibition at 50 µM [1] [%] | IC50 [1, 3] | Ki [2, 4] [µM] | Ki [2] [µM] | IC50 [1, 5] [µM] | SMILES
99 | 99 | 0.046 µM and 0.084 µM | 0.57 | – | – | COc1ccc(CN2C(=O)c3cccc(N4CCN([C@H](C)c5ccccc5)CC4)c3C2=O)cc1OC [Cpd 1, 2-(3,4-dimethoxy-benzyl)-4-[4-(1R)-(1-phenyl-ethyl)-piperazin-1-yl]-isoindole-1,3-dione]
101 | 103 | 0.07 µM | 0.31 | – | – | COc1ccc(C(C)N2C(=O)c3cccc(N4CCN([C@H](C)c5ccccc5)CC4)c3C2=O)cc1OC (stereo partly drawn) [Cpd 2, 2-[1-(3,4-dimethoxy-phenyl)-ethyl]-4-[4-(1R)-(1-phenyl-ethyl)-piperazin-1-yl]-isoindole-1,3-dione]
100 | 101 | 0.13 µM | 0.16 | – | – | COc1ccc([C@H](C)N2C(=O)c3cccc(N4CCN([C@H](C)c5ccccc5)CC4)c3C2=O)cc1OC [Cpd 3, 2-[(S)-1-(3,4-dimethoxy-phenyl)-ethyl]-4-[4-(1R)-(1-phenyl-ethyl)-piperazin-1-yl]-isoindole-1,3-dione]
100 | 100 | 0.15 µM | 0.23 | – | – | COc1ccc([C@@H](C)N2C(=O)c3cccc(N4CCN([C@H](C)c5ccccc5)CC4)c3C2=O)cc1OC [Cpd 4, (R)-2-[1-(3,4-dimethoxy-phenyl)-ethyl]-4-[4-(1R)-(1-phenyl-ethyl)-piperazin-1-yl]-isoindole-1,3-dione]
99 | 99 | 0.151 µM | – | 1.5 | – | COc1ccc(CN2C(=O)c3cccc(N4CCN(Cc5ccccc5)CC4)c3C2=O)cc1OC [Cpd 5, 4-(4-benzyl-piperazin-1-yl)-2-(3,4-dimethoxy-benzyl)-isoindole-1,3-dione]
103 | 102 | 0.16 µM | – | 1.2 | – | COc1ccc(CN2C(=O)c3cccc(N4CCN(C(C)c5ccccc5)CC4)c3C2=O)cc1OC (centres unmarked) [Cpd 6, 2-(3,4-dimethoxy-benzyl)-4-[4-(1-phenyl-ethyl)-piperazin-1-yl]-isoindole-1,3-dione]
100 | 100 | 0.18 µM | 0.31 | – | – | CCC(c1ccc(OC)c(OC)c1)N1C(=O)c2cccc(N3CCN([C@H](C)c4ccccc4)CC3)c2C1=O (stereo partly drawn) [Cpd 8, 2-[1-(3,4-dimethoxy-phenyl)-propyl]-4-[4-(1R)-(1-phenyl-ethyl)-piperazin-1-yl]-isoindole-1,3-dione]
95 | 99 | 0.41 µM | – | 4 | – | CCC(c1ccccc1)N1CCN(c2cccc3c2C(=O)N(Cc2ccc(OC)c(OC)c2)C3=O)CC1 (centres unmarked) [Cpd 13, 2-(3,4-dimethoxy-benzyl)-4-[4-(1-phenyl-propyl)-piperazin-1-yl]-isoindole-1,3-dione]
100 | 100 | 0.82 µM | – | 5.2 | – | COc1cc(CN2C(=O)c3cccc(N4CCN([C@H](C)c5ccccc5)CC4)c3C2=O)ccc1O [Cpd 15, 2-(4-hydroxy-3-methoxy-benzyl)-4-[4-(1R)-(1-phenyl-ethyl)-piperazin-1-yl]-isoindole-1,3-dione]

Reference: US8193191B2, “Urotensin II receptor antagonists” (Janssen Pharmaceutica N.V., priority 2006, dated 2012)
